Experiment: Clinical follow-up of treated mice (body weight, water consumption)
Type: in vivo, NMRI nude mice
Procedure: 45 female NMRI nude mice, 6 weeks old.
Clinical follow-up: animals weight and tumor volume: 2-3 times a week.
Hela and Cal33 Cell Lines • cumulative dose of 20 mg (5 mg/mouse/inj repeated 1 day/2 for 8 days (4 times)) Panc-1 cell line • cumulative dose of […] (9 mg/mouse/injection repeated 1 day/2 for 21 days (11 times))
Hela Cell Lines • cumulative dose of 200 mg per mouse: 25 mg/day (8 mL/day @ 3.13 mg/mL) over 8 days
Cal33 Cell Lines • cumulative dose of 400 mg per mouse: 50 mg/day (8 mL/day @ 6.25 mg/mL) over 8 days
Panc-1 Cell Line • cumulative dose of 200 mg per mouse: 9.5 mg/day (8 mL/day @ 1.19 mg/mL) over 21 days

With `[N-]=[N+]=NC[C@H]1OC(O)[C@@H](O)[C@@H]1O` (stereo partly drawn) [Ara-N3, 5-azido-5-deoxy-D-arabinofuranose] the “water consumption of the mice” value (Ara-N3 in drinking water up to 6.25 mg/mL) was “did not alter the water consumption”, the body weight loss (treatment by intravenous injections) was “did not induce any body weight loss” and the body weight loss (treatment in drinking water) was “did not induce any body weight loss”.

Reference: patent publication US20230233589A1, “METHODS FOR TREATING CANCER USING A MODIFIED MONOSACCHARIDE COMPOUND” (THERAONCO, priority 2020, published 2023)
